From publication PMC4541410 (Scientific Reports, 2015)
Where two headings read alike, the source gives them in different places. Where a SMILES comes first, the peptide text is derived from it.

How the values were obtained:
92UG024 (D) = format: cell-based; conditions: primary HIV-1 isolate, subtype D; read-out: IC50 (nM), infection by primary isolate 92UG024 (D)
BCF020 (Group O) = conditions: read-out: IC50 (nM), infection by primary isolate BCF020 (Group O), primary HIV-1 isolate
NP1525 (A/E) = format: cell-based; conditions: primary HIV-1 isolate, subtype A/E; read-out: IC50 (nM), infection by primary isolate NP1525 (A/E)
94US_33931N (B) = conditions: read-out: IC50 (nM), infection by primary isolate 94US_33931N (B); primary HIV-1 isolate, subtype B
[1] = test system: T20-resistant HIV-1 variant V38E/N42S; format: cell-based
92UG029 (A) = conditions: read-out: IC50 (nM), infection by primary isolate 92UG029 (A); primary HIV-1 isolate, subtype A
92TH009 (A/E) = conditions: read-out: IC50 (nM), infection by primary isolate 92TH009 (A/E); primary HIV-1 isolate, subtype A/E
[2] = test system: T20-resistant HIV-1 variant V38A/N42T; format: cell-based
93BR020 (F) = format: cell-based; conditions: primary HIV-1 isolate, subtype F; read-out: IC50 (nM), infection by primary isolate 93BR020 (F)
[3] = rat liver homogenate (100 mg wet tissue/2.5 ml PBS pH 7.2, 9,000 g supernatant), peptide 10 μg/ml, 37 °C, LC-MS; triplicate
Experimental: Chromatographic analyses were performed using an ODS-C8 column (5 μm, 100 mm × 2.0 mm ID) kept at ambient temperature. The mobile phase was composed of acetonitrile-water-formic acid in the ratio of 50:50:0.1 (v/v/v) at a flow rate of 0.3 mL/min. The sample injection volume was 10 μL. Acetonitrile was HPLC grade and other chemical reagents and solvents were analytical grade. A Thermo TSQ Quantum Discovery MAX triple-quadruple tandem mass spectrometer equipped with ESI source (San Jose, CA) and Surveyor LC pump were used for LC-MS analysis. Data acquisition and data processing were performed by using Xcalibur software and LCQuan 2.0 data analysis program (Thermo Finnigan), respectively. Optimized MS parameters were as below: 4800 V spray voltage, 40.0 psi sheath gas pressure, 1.0 psi auxiliary valve flow and 300 °C of capillary temperature. When running collision-induced dissociation (CID), the pressure was set to 1.5 mTorr.
The supernatants were collected.

[4] = test system: T20-resistant HIV-1 variant V38A; format: cell-based
N36 (gp41 NHR peptide) = molecular target: T1, N36 (gp41 NHR peptide) (Human immunodeficiency virus type 1 group M subtype B, UniProt P04578); assay: CD spectroscopy and thermal midpoint analysis of peptide/N36 complexes; format: physicochemical, HIV-1
T1 construct: gp41 NHR (“N36”, 546-581); made in house; host or cells: chemical solid-phase FMOC synthesis
Experimental: Briefly, each peptide or peptide mixture was dissolved in phosphate-buffered saline (PBS: 50 mM sodium phosphate and 150 mM NaCl, pH 7.2) at the final concentration of 10 μM and incubated at 37 °C for 30 min before cooling down to 4 °C. The CD spectra of each sample were acquired on a Jasco spectropolarimeter (Model J-815, Jasco Inc., Japan) at 4 °C using a 5 nm bandwidth, 0.1 nm resolution, 0.1 cm path length and an average time of 5.0 sec. Spectra were corrected by the subtraction of a blank corresponding to the solvent composition of each sample. Thermal midpoint analysis was used to determine the temperature at which 50% of the 6-HB formed by the CHR and NHR would decompose. It was monitored at 222 nm from 4 °C to 98 °C by applying a thermal gradient of 5 °C/min. The melting curve was smoothed and the midpoint of the thermal unfolding transition (Tm) values was calculated using Jasco software utilities as described above.

[5] = test system: T20-resistant HIV-1 strains
[6] = test system: HIV-1IIIB (subtype B, X4); assay: Inhibition of HIV-1 IIIB infection by peptides in the presence of sera from HIV-1-infected patients; format: cell-based; conditions: for IC50: MT-2 cells, triplicate, mean ± SD
Experimental: Inhibition of peptides on HIV-1IIIB (subtype B, X4)infection in the presence of HIV-1-infected patients’ sera was determined as previously described. Briefly, each peptide was mixed with serially diluted serum from an HIV-1-infected patient at room temperature for 30 min. Next, the mixture of peptide/serum and HIV-1 (100 TCID50) were added to MT-2 cells (1 × 10^5/ml) in RPMI 1640 medium containing 10% FBS. After incubation at 37 °C overnight, the culture supernatants were replaced with fresh culture medium.

[7] = molecular target: T2, gp41 6-HB formation between N36 and C34 (Human immunodeficiency virus type 1 group M subtype B, UniProt P04578); assay: biochemical; format: biochemical, HIV-1
T2 construct: gp41 NHR (“N36”, 546-581); made in house; host or cells: chemical solid-phase FMOC synthesis
Experimental: Inhibition of gp41 six-helix bundle formation by a testing peptide was determined with a sandwich ELISA described previously. […] A450 was determined by an ELISA reader (Ultra 384, Tecan).

in vivo = conditions: male, Sprague-Dawley (SD), rat, plasma, iv, 1 mg/kg
Experimental: Four male SD rats weighing approximately 200 g each were obtained from the Shanghai Medical School Animal Center and were used for the half-life assay. […] After injection, blood samples were acquired from rat orbit at several time points (8 and 30 min and 1.5, 3, 6, 9, 12 and 24 h after peptide injection) and placed in clean tubes. […] Then, HRP-labeled rabbit-anti-mouse IgG (Sigma, USA) and TMB were added in order. Absorbance at 450 nm was determined by an ELISA reader (Ultra 384, Tecan). The standard peptide parameters were obtained first. Then, the plasma peptide concentrations were determined as a function of time and the half-life was calculated by using PK Solver for Microsoft Excel to obtain pharmacokinetic parameters.

[8] = test system: T20-resistant HIV-1 variant N42T/N43K; format: cell-based

T2 sequence (P04578 546-581): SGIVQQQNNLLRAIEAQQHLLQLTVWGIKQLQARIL
T1 sequence (P04578 546-581): as above

## CC[C@H](C)[C@H](NC(=O)[C@H](CO)NC(=O)[C@H](CCC(=O)O)NC(=O)[C@H](CCC(=O)O)NC(=O)[C@H](CCC(N)=O)NC(=O)[C@H](CCCCN)NC(=O)[C@H](CCCCN)NC(=O)[C@@H](NC(=O)[C@H](CCC(N)=O)NC(=O)[C@H](CCC(=O)O)NC(=O)[C@H](CCC(=O)O)NC(=O)[C@@H](NC(=O)[C@H](CCCCN)NC(=O)[C@H](CCCCN)NC(=O)[C@@H](NC(=O)[C@H](CC(C)C)NC(=O)[C@H](CCC(=O)O)NC(=O)[C@H](CCC(=O)O)NC(=O)[C@H](CO)NC(=O)[C@H](CCCCN)NC(=O)[C@H](CCCCN)NC(=O)[C@@H](NC(=O)[C@H](CC(C)C)NC(=O)[C@H](CCC(=O)O)NC(=O)[C@H](CCC(=O)O)NC(=O)[C@@H](NC(=O)[C@H](CCCCN)NC(=O)[C@H](CCCCN)NC(=O)[C@H](CC(=O)O)NC(=O)[C@H](Cc1c[nH]c2ccccc12)NC(=O)[C@H](CCC(=O)O)NC(=O)[C@H](CCC(=O)O)NC(=O)[C@H](Cc1c[nH]c2ccccc12)NC(=O)[C@@H](NC(=O)[C@H](CCSC)NC(C)=O)[C@@H](C)O)[C@@H](C)CC)[C@@H](C)CC)[C@@H](C)CC)[C@@H](C)CC)[C@@H](C)CC)C(=O)N[C@@H](CCCCN)C(=O)N[C@@H](CCCCN)C(N)=O [AP3] (Ac-MTWEEWDKKIEELIKKSEELIKKIEEQIKKQEESIKK-NH2)
92UG024 (D)
  IC50: 16.5 ± 0.2 nM
BCF020 (Group O)
  IC50: 21.9 ± 0.1 nM
NP1525 (A/E)
  IC50: 32.3 ± 8.8 nM
94US_33931N (B)
  IC50: 10.2 ± 0.7 nM
[1]
  IC50: 42.4 ± 11.6 nM
92UG029 (A)
  IC50: 7.1 ± 1.7 nM
92TH009 (A/E)
  IC50: 27.8 ± 5.5 nM
[2]
  IC50: 90 ± 21.5 nM
93BR020 (F)
  IC50: 19.9 nM
[3]
  in vitro metabolic stability in liver homogenate: significantly enhanced in vitro metabolic stability over T20
[4]
  IC50: 12.6 ± 2.66 nM
N36 (gp41 NHR peptide); CD thermal denaturation at 222 nm, 4 to 98 °C, 5 °C/min, 10 μM in PBS pH 7.2
  Tm of complex with N36: 83.6 ^oC
N36 (gp41 NHR peptide); CD, peptide/N36 mixture 10 μM in PBS pH 7.2, 4 °C
  α-helix content of complex with N36: 77.84%
[5]; AP3 versus AP2
  fold more effective than AP2 against T20-resistant strains: 2- to 4 fold
[5]; read-out: IC50 against T20-resistant HIV-1 strains (summary), over the T20-resistant strains of Table 1
  IC50: 13 to 90 nM
[6]; HPS-1 relative to N
  Fold change of IC50, HPS-1: 0.7
[6]; HPS-2 relative to N
  Fold change of IC50, HPS-2: 0.2
[6]; HPS-3 relative to N
  Fold change of IC50, HPS-3: 0.2
[6]; HPS-4 relative to N
  Fold change of IC50, HPS-4: 0.1
[6]; HPS-5 relative to N
  Fold change of IC50, HPS-5: 0.2
[6]; in presence of serum of HIV-1-infected patient HPS-1, read-out: IC50 (nM), HIV-1 IIIB infection, HPS-1
  IC50: 17.7 ± 4.3 nM
[6]; in presence of serum of HIV-1-infected patient HPS-2, read-out: IC50 (nM), HIV-1 IIIB infection, HPS-2
  IC50: 5.1 ± 0.7 nM
[6]; in presence of serum of HIV-1-infected patient HPS-3, read-out: IC50 (nM), HIV-1 IIIB infection, HPS-3
  IC50: 4.2 ± 0.4 nM
[6]; in presence of serum of HIV-1-infected patient HPS-4, read-out: IC50 (nM), HIV-1 IIIB infection, HPS-4
  IC50: 2 ± 0.6 nM
[6]; in presence of serum of HIV-1-infected patient HPS-5, read-out: IC50 (nM), HIV-1 IIIB infection, HPS-5
  IC50: 5.1 ± 0.8 nM
[7]
  IC50: 240 nM
[7]; AP3 versus AP1
  fold more potent than AP1 against 6-HB formation: about 30 fold
[7]; AP3 versus AP2
  fold more potent than AP2 against 6-HB formation: ~15 fold
In vivo
  MRT: 8.69 h
  half-life: 6.02 h
[8]
  IC50: 35.2 ± 12.5 nM
